What was measured:
Assay type in all cases: in vivo
[1] = test system: cocklebur (Xanthium strumarium); assay: Test B pre/postemergence
Method in brief: (§1)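 Formulation: non-phytotoxic solvent blend with surfactant. Timing: preemergence on seeds, postemergence at 1- to 4-leaf (2–18 cm). Assessment: visual, 0–100 against controls, after 13–15 days' greenhouse growth.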

[2] = test system: crabgrass (Digitaria sanguinalis); assay: Test B pre/postemergence
Method in brief: as §1

[3] = test system: pigweed (Amaranthus retroflexus); assay: Test B pre/postemergence
Method in brief: as §1

[4] = test system: morningglory (Ipomoea coccinea); assay: Test B pre/postemergence
Method in brief: as §1

[5] = test system: velvetleaf (Abutilon theophrasti); assay: Test B pre/postemergence
Method in brief: as §1

[6] = test system: Surinam grass (Brachiaria decumbens); assay: Test B pre/postemergence
Method in brief: as §1

[7] = test system: lambsquarters (Chenopodium album); assay: Test B pre/postemergence
Method in brief: as §1

[8] = test system: giant foxtail (Setaria faberii); assay: Test B pre/postemergence
Method in brief: as §1

[9] = test system: wheat (Triticum aestivum); assay: Test B pre/postemergence
Method in brief: as §1

[10] = test system: barnyardgrass (Echinochloa crus-galli); assay: Test B pre/postemergence
Method in brief: as §1

corn (Zea mays) = assay: Test B pre/postemergence
Method in brief: as §1

rice (Oryza sativa) = assay: Test B flooded paddy test; settings: Flood, 1000 g ai/ha; scale 0 to 100
Method in brief: (§2)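 Rice, umbrella sedge, duck salad and barnyardgrass grown to 2-leaf stage under flooded paddy conditions and treated with formulated test chemicals. Kept in greenhouse 13–15 days, then visually rated against untreated controls on a 0–100 scale (0 no effect, 100 complete control).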

[11] = test system: duck salad (Heteranthera limosa); assay: Test B flooded paddy test; settings: Flood, 1000 g ai/ha; scale 0 to 100
Method in brief: as §2

[12] = test system: umbrella sedge (Cyperus difformis); assay: Test B flooded paddy test; settings: Flood, 1000 g ai/ha; scale 0 to 100
Method in brief: as §2

[13] = test system: barnyardgrass (Echinochloa crus-galli); assay: Test B flooded paddy test; settings: Flood, 1000 g ai/ha; scale 0 (no effect) to 100 (complete control)
Method in brief: as §2

[14] = test system: blackgrass (Alopecurus myosuroides); assay: Test B postemergence
Method in brief: as §1

wild oat (Avena fatua) = assay: Test B postemergence
Method in brief: as §1

[15] = Postemergence, 125 g ai/ha, scale 0 to 100 (0 no effect, 100 complete control)
[16] = Postemergence, 500 g ai/ha, scale 0 to 100
[17] = Preemergence, 125 g ai/ha, scale 0 to 100 (0 no effect, 100 complete control)
[18] = Preemergence, 500 g ai/ha, scale 0 to 100 (0 no effect, 100 complete control)
[19] = 125 g ai/ha, scale 0 to 100 (0 no effect, 100 complete control)

With `COC(=O)c1nc(C2CC2)nc(N=CN(C)C)c1Br` [Compound 19] as the compound, how does the “Cocklebur plant response rating” value [1, 15] read?
Its value is 90.

What about the “Plant response rating, Cocklebur” value [1, 16] of the same compound?
Its value is 100.

What about the “Plant response rating, Cocklebur” value [1, 17] of the same compound?
Its value is 90.

And the “Cocklebur plant response rating” value [1, 18]?
Its value is 100.

What about the “Crabgrass plant response rating” value [2, 15] of the same compound?
The value was 40.

What about the “Plant response rating, Crabgrass” value [2, 16] of the same compound?
The value was 80.

And the “Plant response rating, Crabgrass” value [2, 17]?
The value was 80.

And the “Crabgrass plant response rating” value [2, 18]?
The value was 90.

And the “Pigweed plant response rating” value [3, 15]?
Its value is 90.

And the “Plant response rating, Pigweed” value [3, 16]?
Its value is 100.

And the “Plant response rating, Pigweed” value [3, 17]?
The value was 90.

And the “Pigweed plant response rating” value [3, 18]?
The value was 100.

And the “Morningglory plant response rating” value [4, 15]?
The value was 100.

What about the “Plant response rating, Morningglory” value [4, 16] of the same compound?
The value was 100.

What about the “Plant response rating, Morningglory” value [4, 17] of the same compound?
The value was 90.

And the “Morningglory plant response rating” value [4, 18]?
The value was 100.

And the “Velvetleaf plant response rating” value [5, 15]?
Its value is 70.

What about the “Plant response rating, Velvetleaf” value [5, 16] of the same compound?
Its value is 100.

And the “Plant response rating, Velvetleaf” value [5, 17]?
The value was 90.

What about the “Velvetleaf plant response rating” value [5, 18] of the same compound?
Its value is 100.

And the “Surinam Grass plant response rating” value [6, 15]?
The value was 40.

And the “Plant response rating, Surinam Grass” value [6, 16]?
The value was 90.

What about the “Plant response rating, Surinam Grass” value [6, 17] of the same compound?
Its value is 60.

What about the “Surinam Grass plant response rating” value [6, 18] of the same compound?
The value was 90.

What about the “Lambsquarters plant response rating” value [7, 15] of the same compound?
The value was 100.

And the “Plant response rating, Lambsquarters” value [7, 16]?
The value was 100.

And the “Plant response rating, Lambsquarters” value [7, 17]?
Its value is 100.

And the “Lambsquarters plant response rating” value [7, 18]?
The value was 100.

And the “Foxtail, Giant plant response rating” value [8, 15]?
Its value is 20.

And the “Plant response rating, Foxtail, Giant” value [8, 16]?
The value was 80.

And the “Plant response rating, Foxtail, Giant” value [8, 17]?
The value was 20.

And the “Foxtail, Giant plant response rating” value [8, 18]?
Its value is 80.

What about the “Wheat plant response rating” value [9, 15] of the same compound?
Its value is 20.

And the “Plant response rating, Wheat” value [9, 16]?
The value was 60.

And the “Plant response rating, Wheat” value [9, 17]?
Its value is 50.

What about the “Wheat plant response rating” value [9, 18] of the same compound?
The value was 60.

And the “Barnyardgrass plant response rating” value [10, 15]?
Its value is 80.

And the “Plant response rating, Barnyardgrass” value [10, 16]?
Its value is 90.

And the “Plant response rating, Barnyardgrass” value [10, 17]?
Its value is 40.

And the “Barnyardgrass plant response rating” value [10, 18]?
Its value is 90.

And the “Corn plant response rating” value (corn (Zea mays); [15])?
The value was 30.

And the “Plant response rating, Corn” value (corn (Zea mays); [16])?
The value was 70.

And the “Plant response rating, Corn” value (corn (Zea mays); [17])?
Its value is 70.

And the “Corn plant response rating” value (corn (Zea mays); [18])?
Its value is 90.

And the “Plant response rating, Rice” value (rice (Oryza sativa))?
Its value is 60.

And the “Plant response rating, Ducksalad” value [11]?
Its value is 80.

What about the “Plant response rating, Sedge, Umbrella” value [12] of the same compound?
The value was 70.

What about the “Plant response rating, Barnyardgrass” value [13] of the same compound?
The value was 80.

What about the “Blackgrass plant response rating” value [14, 19] of the same compound?
The value was 60.

And the “Plant response rating, Blackgrass” value ([14]; 500 g ai/ha, scale 0 to 100)?
Its value is 80.

And the “Oat, Wild plant response rating” value (wild oat (Avena fatua); [19])?
The value was 40.

What about the “Plant response rating, Oat, Wild” value (wild oat (Avena fatua); 500 g ai/ha, scale 0 to 100) of the same compound?
Its value is 70.

Source: patent publication US8802597B2, “Herbicidal pyrimidines” (E I du Pont de Nemours and Company, priority 2003, dated 2014)
